The record followed here is patent US8669266B2, “Quinoline-carboxamide derivatives as P2Y12 antagonists” (Sanofi, priority 2007, dated 2014).

For assay [1], the system named is human platelet rich plasma. In words: Inhibition of human platelet aggregation, 96-well assay (ADP-induced, platelet rich plasma). Format: cell-based. The note with it: 20 min, 96-well plate, human PRP, aggregation induced by ADP, AUC of absorbance over 20 minutes, 37° C. The protocol:
Alternatively to a binding assay which measures a compound's ability to bind to the P2Y12 receptor, the effect on cellular function was also determined. This ability of the compound was evaluated in two platelet aggregation assays: in 96-well plates and with the “Born”-method using single cuvettes.
Whole blood was collected from healthy volunteers using 20 ml syringes containing 2 ml of ACD-A Aqua-Citrat-Dextrose-A, Fresenius). The anticoagulated whole blood was transferred into 15 ml polypropylene conical tubes (10 ml per tube). The tubes were centrifuged for 15 minutes at 150×g at RT without using the centrifuge brake. This procedure leads to a pellet of cellular components and a supernatant of platelet rich plasma (PRP). The PRP layer was collected from each tube and pooled for each donor. To avoid carry over of cellular components following centrifugation, approximately 5 ml of PRP was left in the tube. The platelet concentration was determined using a Coulter Counter.
The 15 ml tubes containing the pellet of cellular components were centrifuged again for 10 minutes at 1940×g. This pelleted out most particulate blood constituents remaining, leaving a layer of Platelet Poor Plasma (PPP). The PPP was collected for each donor. The PRP layer, previously set aside, was diluted with PPP to a final concentration of approximately 3×E8 platelets/ml with the PPP.
The human platelet aggregation assay is performed in 96-well plates using a microtiter plate reader (SpectraMax Plus 384 with SoftMax Pro software from Molecular Devices).
In the plate 15 μl of test compound at 10× final concentration in NaCl is mixed with 120 μl fresh PRP and incubated for 5 minutes. Following that incubation period, 15 μl of 40 μM ADP is added to the reaction mix. This addition of ADP is sufficient to induce aggregation in the absence of an inhibitor. The plates are then transferred to the microplate reader and aggregation is measured over 20 minutes. The instrument settings include: Absorbance at 650 nm, run time 20 minutes with readings in 1-minute intervals and 50 seconds shaking between readings all performed at 37° C. Results of the assay are expressed as % inhibition, and are calculated using area under curve (AUC) of the absorbance over 20 minutes.

The target in a further assay is human P2Y12 receptor (Homo sapiens (Human), UniProt Q9H244). Description: Human P2Y12 recombinant cell membrane binding assay with 33P 2MeS-ADP. The note with it: CHO cell membranes with recombinant human P2Y12; competition against 33P 2MeS-ADP. As for the experimental part: The ability of the compounds of the formula I to inhibit the P2Y12 receptor can be assessed by determining the concentration of the compound of the formula I that binds to the human P2Y12 Recombinant Cell Membrane Binding Assay with 33P 2MeS-ADP.
Chain of human P2Y12 receptor (Q9H244 whole entry): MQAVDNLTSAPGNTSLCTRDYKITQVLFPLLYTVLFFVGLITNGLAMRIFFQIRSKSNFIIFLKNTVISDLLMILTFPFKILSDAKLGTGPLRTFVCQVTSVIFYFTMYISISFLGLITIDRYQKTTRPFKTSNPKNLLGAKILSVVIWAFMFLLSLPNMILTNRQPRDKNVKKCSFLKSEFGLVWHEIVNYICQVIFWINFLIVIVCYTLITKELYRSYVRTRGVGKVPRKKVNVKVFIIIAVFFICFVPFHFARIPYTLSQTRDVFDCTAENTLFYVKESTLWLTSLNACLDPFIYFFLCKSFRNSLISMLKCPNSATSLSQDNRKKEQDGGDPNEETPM
Human P2Y12 Recombinant Cell Membrane Binding Assay
The ability of a test compound to bind to the P2Y12 receptor was evaluated in a recombinant cell membrane binding assay. In this competitive binding assay, the test compound competed against a radiolabeled agonist for binding to the P2Y12 receptor, expressed on the cell membrane. Inhibition of binding of the labeled material was measured and correlated to the amount and potency of the test compound.
As source of P2Y12, a membrane preparation was prepared from Chinese Hamster Ovary (CHO) cells with recombinant expression of the human P2Y12 receptor according to standard procedures.
Next, wells were washed four times with 400 μl/well of stop buffer on a plate vacuum. The plate was disassembled and allowed to air dry overnight with the filter side up over night. […] The top of the filter plate was sealed with plastic plate covers. The sealed filter plate were incubated 2 hours at RT. A Microbeta Scintillation Counter was used to measure counts.
Compounds were diluted as 10 mM DMSO stocks and tested in a four-point, five-fold dilution series run in triplicate beginning at 10 μM, final concentration. Data were analyzed using a four-parameter curve fit with a fixed minimum and maximum experimentally defined as the average positive and negative controls on each plate.

`CCOC(=O)N1CCN(C(=O)[C@H](CCC(=O)O)NC(=O)c2cc(OCC(=O)N3CCC(O)CC3)c3ccc(C)cc3n2)CC1` [Example 10, 4-[(S)-4-Carboxy-2-({4-[2-(4-hydroxy-piperidin-1-yl)-2-oxo-ethoxy]-7-methyl-quinoline-2-carbonyl}-amino)-butyryl]-piperazine-1-carboxylic acid ethyl ester] showed an IC50 in assay [1] of 180 nM.

For `CCNC(=O)[C@@H]1CCCN1C(=O)COc1cc(C(=O)N[C@@H](CCC(=O)O)C(=O)N2CCN(C(=O)OCC)CC2)nc2cccc(F)c12` [Example 179, 4-[(S)-4-Carboxy-2-({4-[2-((S)-2-ethylcarbamoyl-pyrrolidin-1-yl)-2-oxo-ethoxy]-5-fluoro-quinoline-2-carbonyl}-amino)-butyryl]-piperazine-1-carboxylic acid ethyl ester], the IC50 in assay [1] is 30 nM.

With `CCOC(=O)N1CCN(C(=O)[C@H](CCC(=O)O)NC(=O)c2cc(OCC(=O)N3CCC[C@H]3C(=O)NC3CCC3)c3cc(F)c(F)cc3n2)CC1` [Example 196, 4-[(S)-4-Carboxy-2-({4-[2-((S)-2-cyclobutylcarbamoyl-pyrrolidin-1-yl)-2-oxo-ethoxy]-6,7-difluoro-quinoline-2-carbonyl}-amino)-butyryl]-piperazine-1-carboxylic acid ethyl ester], the IC50 at human P2Y12 receptor amounted to 65 nM.

Consider `CCOC(=O)N1CCN(C(=O)[C@H](CCC(=O)OCC2CCCC2)NC(=O)c2cc(OCC(=O)N3CCC[C@H]3C(=O)NC3CCC3)c3ccc(C)cc3n2)CC1` [Example 246, 4-[(S)-2-({4-[2-((S)-2-Cyclobutylcarbamoyl-pyrrolidin-1-yl)-2-oxo-ethoxy]-7-methyl-quinoline-2-carbonyl}-amino)-4-cyclopentylmethoxycarbonyl-butyryl]-piperazine-1-carboxylic acid ethyl ester], for which, at human P2Y12 receptor, the IC50 is 71 nM.

For the compound `CCOC(=O)N1CCN(C(=O)[C@H](CC(=O)O)NC(=O)c2cc(OCC(=O)N3CCC[C@H]3C(=O)NC3CCC3)c3cc(F)c(C)cc3n2)CC1` [Example 270, 4-[(S)-3-Carboxy-2-({4-[2-((S)-2-cyclobutylcarbamoyl-pyrrolidin-1-yl)-2-oxo-ethoxy]-6-fluoro-7-methyl-quinoline-2-carbonyl}-amino)-propionyl]-piperazine-1-carboxylic acid ethyl ester], on human P2Y12 receptor, the IC50 was 9 nM.

With `CCOC(=O)N1CCN(C(=O)[C@H](CCC(=O)O)NC(=O)c2cc(O[C@H](C)C(=O)N3CCC[C@H]3C(=O)N3CCCCC3)c3ccc(C)cc3n2)CC1` [Example 296, 4-{(S)-4-Carboxy-2-[(7-methyl-4-{(R)-1-methyl-2-oxo-2-[(S)-2-(piperidine-1-carbonyl)-pyrrolidin-1-yl]-ethoxy}-quinoline-2-carbonyl)-amino]-butyryl}-piperazine-1-carboxylic acid ethyl ester], the IC50 at human P2Y12 receptor was 12 nM.

For the compound `CCOC(=O)N1CCN(C(=O)[C@H](CCC(=O)O)NC(=O)c2cc(O[C@H](C)C(=O)N3CCC[C@H]3C(=O)NCC3CC3)c3ccc(C)cc3n2)CC1` [Example 300, 4-{(S)-4-Carboxy-2-[(4-{(R)-2-[(S)-2-(cyclopropylmethyl-carbamoyl)-pyrrolidin-1-yl]-1-methyl-2-oxo-ethoxy}-7-methyl-quinoline-2-carbonyl)-amino]-butyryl}-piperazine-1-carboxylic acid ethyl ester], at human P2Y12 receptor, the IC50 is 5 nM.

Regarding `CCOC(=O)N1CCN(C(=O)[C@H](CCC(=O)O)NC(=O)c2cc(OCC(=O)N3CCC[C@H]3C(=O)NCC3CCC3)c3ccc(C)cc3n2)CC1` [Example 308, 4-{(S)-4-Carboxy-2-[(4-{2-[(S)-2-(cyclobutylmethyl-carbamoyl)-pyrrolidin-1-yl]-2-oxo-ethoxy}-7-methyl-quinoline-2-carbonyl)-amino]-butyryl}-piperazine-1-carboxylic acid ethyl ester], the IC50 in assay [1] amounted to 60 nM.

`CCOC(=O)N1CCN(C(=O)[C@H](CCC(=O)O)NC(=O)c2cc(OCC(=O)N3CCCC3c3ccccc3)c3ccccc3n2)CC1` (stereo partly drawn) [Example 334, 4-[(S)-4-Carboxy-2-({4-[2-oxo-2-(2-phenyl-pyrrolidin-1-yl)-ethoxy]-quinoline-2-carbonyl}-amino)-butyryl]-piperazine-1-carboxylic acid ethyl ester]: the IC50 at human P2Y12 receptor came out at 102 nM.

For `CCCCOC(=O)N1CC(NC(=O)[C@H](CCC(=O)O)NC(=O)c2cc(OCC(=O)N3CCC[C@H]3C(=O)NC3CCC3)c3ccccc3n2)C1` [Example 424, 3-[(S)-4-Carboxy-2-({4-[2-((S)-2-cyclobutylcarbamoyl-pyrrolidin-1-yl)-2-oxo-ethoxy]-quinoline-2-carbonyl}-amino)-butyrylamino]-azetidine-1-carboxylic acid butyl ester], at human P2Y12 receptor, the IC50 came out at 33 nM.

For the compound `CCCCOC(=O)N1CCN(C(=O)[C@H](CCC(=O)O)NC(=O)c2cc(OCC(=O)N3CCC[C@H]3C#N)c3ccc(C)cc3n2)CC1` [Example 460, 4-[(S)-4-Carboxy-2-({4-[2-((S)-2-cyano-pyrrolidin-1-yl)-2-oxo-ethoxy]-7-methyl-quinoline-2-carbonyl}-amino)-butyryl]-piperazine-1-carboxylic acid butyl ester], in assay [1], the IC50 turned out to be 73 nM.

Take `CCCCOC(=O)N1CCN(C(=O)[C@H](CCC(=O)O)NC(=O)c2cc(OCC(=O)N3CC(O)C3)c3ccc(C)cc3n2)CC1` [Example 472, 4-[(S)-4-Carboxy-2-({4-[2-(3-hydroxy-azetidin-1-yl)-2-oxo-ethoxy]-7-methyl-quinoline-2-carbonyl}-amino)-butyryl]-piperazine-1-carboxylic acid butyl ester]: the IC50 in assay [1] was 65 nM.

Regarding `CCCCOC(=O)N1CCN(C(=O)[C@H](CCC(=O)O)NC(=O)c2cc(OCC(=O)N3CCC[C@H]3C(=O)NC3CCC3)c3ccc(C)cc3c2)CC1` [Example 511, 4-[(S)-4-Carboxy-2-({4-[2-((S)-2-cyclobutylcarbamoyl-pyrrolidin-1-yl)-2-oxo-ethoxy]-7-methyl-naphthalene-2-carbonyl}-amino)-butyryl]-piperazine-1-carboxylic acid butyl ester], the IC50 at human P2Y12 receptor is 21 nM.

In the case of `CCCCOC(=O)N1CCN(C(=O)CNC(=O)c2cc(OCC(=O)N3CCC[C@H]3C(=O)NC3CCC3)c3ccccc3n2)CC1` [Example 673, 4-[2-({4-[2-((S)-2-Cyclobutylcarbamoyl-pyrrolidin-1-yl)-2-oxo-ethoxy]-quinoline-2-carbonyl}-amino)-acetyl]-piperazine-1-carboxylic acid butyl ester], at human P2Y12 receptor, the IC50 came to 5 nM.

`Cc1ccc2c(OCC(=O)N3CCC[C@H]3C(=O)NC3CCC3)cc(C(=O)NCC(=O)N3CCN(C(=O)OCCC(F)(F)F)CC3)nc2c1` [Example 679, 4-[2-({4-[2-((S)-2-Cyclobutylcarbamoyl-pyrrolidin-1-yl)-2-oxo-ethoxy]-7-methyl-quinoline-2-carbonyl}-amino)-acetyl]-piperazine-1-carboxylic acid 3,3,3-trifluoro-propyl ester]: the IC50 at human P2Y12 receptor turned out to be 3 nM.

The term IC50 denotes the concentration needed to halve the response being measured.
